The record followed here is PubChem BioAssay AID192 (DTP/NCI, 2004).

The structures appear in SMILES notation. Values joined by “and” are separate entries in the source; they are usually repeats but may differ in a detail not shown here. Equal entries are not always repeated. Inconclusive results and toxic doses are left out.

For this test, the system named is BDF1 mice, B16 melanoma ip, median survival T/C. The test can be described thus: NCI In Vivo Anticancer Drug Screen. Data for tumor model B16 Melanoma (intraperitoneal) in B6D2F1 (BDF1) mice. Conditions: endpoint: median survival time, higher = longer survival. The method in brief: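 The ratio T/C compares compound-treated mice with vehicle-treated controls, using survival or tumor size as the endpoint in a transplantable tumor model.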

Where [1] appears, read: dose: 50.0 mg/kg/injection, schedule: Q01DX009 (ip), vehicle: saline with Tween-80.
The mark [2] stands for this setting: dose: 100.0 mg/kg/injection, schedule: Q01DX009 (ip), vehicle: saline with Tween-80.
Setting [3] is: dose: 200.0 mg/kg/injection, schedule: Q01DX009 (ip), vehicle: saline with Tween-80.
Setting [4] is: dose: 400.0 mg/kg/injection, schedule: Q01DX009 (ip), vehicle: saline with Tween-80.
[5] abbreviates: dose: 50.0 mg/kg/injection, schedule: Q01DX009 (ip), vehicle: Klucel (hydroxypropylcellulose) (HPC).
The mark [6] stands for this setting: dose: 25.0 mg/kg/injection, schedule: Q01DX009 (ip), vehicle: saline with Tween-80.
The mark [7] stands for this setting: dose: 25.0 mg/kg/injection, schedule: Q01DX009 (ip), vehicle: saline.
Setting [8] is: dose: 50.0 mg/kg/injection, schedule: Q01DX009 (ip), vehicle: saline.
Setting [9] is: dose: 3.12 mg/kg/injection, schedule: Q01DX009 (ip), vehicle: saline.
Setting [10] is: dose: 6.25 mg/kg/injection, schedule: Q01DX009 (ip), vehicle: saline.
Where [11] appears, read: dose: 12.5 mg/kg/injection, schedule: Q01DX009 (ip), vehicle: saline.

Take `O=C(NCCCCC(NC(=O)c1ccccc1)C(=O)O)OCc1ccccc1` (configuration not stated): the T/C runs as follows: under setting [1], 101 % of control; under setting [2], 96 % of control; under setting [3], 95 % of control; under setting [4], 86 % of control.

For `C/C(=N\[N+](C)(C)C)c1ccc2ccccc2c1`, the T/C is 93 % of control (dose: 25.0 mg/kg/injection, schedule: Q01DX009 (ip), vehicle: Klucel (hydroxypropylcellulose) (HPC)) and 100 % of control under setting [5].

`Cc1cccc(C(N)=S)n1`: the T/C by setting is: under setting [5], 110 % of control; (dose: 100.0 mg/kg/injection, schedule: Q01DX009 (ip), vehicle: Klucel (hydroxypropylcellulose) (HPC)) 100 % of control.

As to `CSc1nc2cc(C)c(C)cc2[nH]1`, the T/C under setting [6] was 100 % of control; the T/C under setting [1] was 97 % of control; the T/C under setting [2] is 97 % of control and 102 % of control.

Take `COc1ccc(C(=O)/C(Br)=C/C(=O)O)cc1`: the T/C was 99 % of control (dose: 2.5 mg/kg/injection, schedule: Q01DX009 (ip), vehicle: saline); 96 % of control (dose: 5.0 mg/kg/injection, schedule: Q01DX009 (ip), vehicle: saline); 95 % of control and 98 % of control (dose: 10.0 mg/kg/injection, schedule: Q01DX009 (ip), vehicle: saline); 96 % of control (dose: 20.0 mg/kg/injection, schedule: Q01DX009 (ip), vehicle: saline); 95 % of control and 100 % of control (dose: 40.0 mg/kg/injection, schedule: Q01DX009 (ip), vehicle: saline).

Turning to `Cc1[nH]c(=S)sc1C`, the T/C reads like this: under setting [7], 102 % of control; under setting [8], 91 % of control; (dose: 100.0 mg/kg/injection, schedule: Q01DX009 (ip), vehicle: saline) 102 % of control.

Take `C=CCN(CC=C)CCN1CCN(CCCN2c3ccccc3Sc3ccc(C(F)(F)F)cc32)CC1`: the T/C is, setting by setting: under setting [9], 100 % of control; under setting [10], 107 % of control; under setting [11], 97 % of control.

Consider `CC#CCOCC(CCl)OC(=O)Nc1ccccc1` (configuration not stated), for which the T/C was 93 % of control (dose: 100.0 mg/kg/injection, schedule: Q04DX003 (ip), vehicle: saline with Tween-80); 97 % of control (dose: 200.0 mg/kg/injection, schedule: Q04DX003 (ip), vehicle: saline with Tween-80); 90 % of control (dose: 400.0 mg/kg/injection, schedule: Q04DX003 (ip), vehicle: saline with Tween-80).

Take `COc1cc(CN(C)C2CCCCC2)cc(OC)c1OC`: the T/C is, setting by setting: under setting [9], 105 % of control; under setting [10], 102 % of control; under setting [11], 95 % of control; under setting [7], 91 % of control; under setting [8], 101 % of control.

Regarding `COC1C(O)CC(OC2CC(Oc3cc4cc5c(c(O)c4c(O)c3C)C(=O)[C@@H](OC3CC(OC4CC(OC6CC(C)(O)C(OC(C)=O)C(C)O6)C(O)C(C)O4)C(O)C(C)O3)[C@H]([C@H](OC)C(=O)[C@@H](O)[C@@H](C)O)C5)OC(C)C2OC(C)=O)OC1C` (some centres not stated), the T/C by setting is: (dose: 0.01 mg/kg/injection, schedule: Q01DX009 (ip), vehicle: Klucel (hydroxypropylcellulose) (HPC)) 111 % of control; (dose: 0.02 mg/kg/injection, schedule: Q01DX009 (ip), vehicle: Klucel (hydroxypropylcellulose) (HPC)) 111 % of control; (dose: 0.02 mg/kg/injection, schedule: Q01DX009 (ip), vehicle: saline) 167 % of control; (dose: 0.03 mg/kg/injection, schedule: Q01DX009 (ip), vehicle: saline) 152 % of control; (dose: 0.04 mg/kg/injection, schedule: Q01DX009 (ip), vehicle: Klucel (hydroxypropylcellulose) (HPC)) 123 % of control; (dose: 0.04 mg/kg/injection, schedule: Q01DX009 (ip), vehicle: saline) 175 % of control. In addition, the T/C runs as follows: (dose: 0.07 mg/kg/injection, schedule: Q01DX009 (ip), vehicle: saline) 161 % of control; (dose: 0.08 mg/kg/injection, schedule: Q01DX009 (ip), vehicle: saline) 154 % of control; (dose: 0.13 mg/kg/injection, schedule: Q01DX009 (ip), vehicle: saline) 150 % of control; (dose: 0.16 mg/kg/injection, schedule: Q01DX009 (ip), vehicle: Klucel (hydroxypropylcellulose) (HPC)) 150 % of control and 157 % of control; (dose: 0.16 mg/kg/injection, schedule: Q01DX009 (ip), vehicle: saline) 152 % of control; (dose: 0.25 mg/kg/injection, schedule: Q01DX009 (ip), vehicle: saline) 152 % of control. Also, the T/C is, setting by setting: (dose: 0.32 mg/kg/injection, schedule: Q01DX009 (ip), vehicle: saline) 94 % of control; (dose: 3.8 micrograms/kg/injection, schedule: Q01DX009 (ip), vehicle: water) 111 % of control; (dose: 7.5 micrograms/kg/injection, schedule: Q01DX009 (ip), vehicle: water) 109 % of control; (dose: 15.0 micrograms/kg/injection, schedule: Q01DX009 (ip), vehicle: Klucel (hydroxypropylcellulose) (HPC)) 109 % of control; (dose: 15.0 micrograms/kg/injection, schedule: Q01DX009 (ip), vehicle: saline) 94 % of control; (dose: 30.0 micrograms/kg/injection, schedule: Q01DX009 (ip), vehicle: Klucel (hydroxypropylcellulose) (HPC)) 96 % of control. Further, the T/C by setting is: (dose: 30.0 micrograms/kg/injection, schedule: Q01DX009 (ip), vehicle: saline) 88 % of control; (dose: 30.0 micrograms/kg/injection, schedule: Q01DX009 (ip), vehicle: water) 159 % of control; (dose: 60.0 micrograms/kg/injection, schedule: Q01DX009 (ip), vehicle: saline) 100 % of control; (dose: 120.0 micrograms/kg/injection, schedule: Q01DX009 (ip), vehicle: Klucel (hydroxypropylcellulose) (HPC)) 109 % of control; (dose: 120.0 micrograms/kg/injection, schedule: Q01DX009 (ip), vehicle: saline) 94 % of control; (dose: 240.0 micrograms/kg/injection, schedule: Q01DX009 (ip), vehicle: saline) 100 % of control.

In the case of `O=C(Nc1ccccc1Cl)c1ccc([N+](=O)[O-])cc1`, the T/C runs as follows: under setting [2], 100 % of control; under setting [3], 105 % of control; under setting [4], 97 % of control.

In the case of `CCOC(=O)c1ccc(Nc2sc(C(=O)c3ccc(Br)cc3)c(N)c2C#N)cc1`, the T/C reads like this: (dose: 6.25 mg/kg/injection, schedule: Q01DX009 (ip), vehicle: saline with Tween-80) 92 % of control; (dose: 12.5 mg/kg/injection, schedule: Q01DX009 (ip), vehicle: saline with Tween-80) 87 % of control; under setting [6], 88 % of control; under setting [1], 86 % of control.

For the compound `C=C1C(=O)O[C@H]2C1[C@H](OC(=O)/C(C)=C\COC(C)=O)C[C@]1(CO1)[C@@H]1[C@H](O)[C@H]3O[C@@]3(C)[C@@H]12` (some centres not stated), the T/C by setting is: (dose: 3.12 mg/kg/injection, schedule: Q01DX009 (ip), vehicle: other) 112 % of control; (dose: 6.25 mg/kg/injection, schedule: Q01DX009 (ip), vehicle: other) 104 % of control; (dose: 12.5 mg/kg/injection, schedule: Q01DX009 (ip), vehicle: other) 107 % of control; (dose: 25.0 mg/kg/injection, schedule: Q01DX009 (ip), vehicle: other) 106 % of control; (dose: 50.0 mg/kg/injection, schedule: Q01DX009 (ip), vehicle: other) 109 % of control.

As to `C=C1C(C)C2C(Cc3ccccc3)NC(=O)C23OC(=O)/C=C\CC(=O)CCC(C)C/C=C/C3C1O` (configuration not stated), the T/C (dose: 2.5 mg/kg/injection, schedule: Q01DX009 (ip), vehicle: Klucel (hydroxypropylcellulose) (HPC)) was 94 % of control.

On to `CC(=O)OC1CCC(C(C)(C)C)CC1` (configuration not stated), for which the T/C is 113 % of control under setting [1] and 91 % of control under setting [2].

In the case of `Cc1ccc2[nH]c(=O)oc(=O)c2c1`, the T/C runs as follows: (dose: 50.0 mg/kg/injection, schedule: Q04DX003 (ip), vehicle: Klucel (hydroxypropylcellulose) (HPC)) 98 % of control; (dose: 100.0 mg/kg/injection, schedule: Q04DX003 (ip), vehicle: Klucel (hydroxypropylcellulose) (HPC)) 96 % of control; (dose: 200.0 mg/kg/injection, schedule: Q04DX003 (ip), vehicle: Klucel (hydroxypropylcellulose) (HPC)) 93 % of control.
